# Experimental data reported in article PMC9570898, “Comparing Variants of the Cell-Penetrating Peptide sC18 to Design Peptide-Drug Conjugates” (Molecules, 2022).
# Residues, ends and D or L forms follow the SMILES beside them. No end group written: not given here. *: point of attachment. X1 = COc1cccc2c1C(=O)c1c(O)c3c(c(O)c1C2=O)C[C@@](O)(C(=O)CO)C[C@@H]3O[C@H]1C[C@H](NC(=O)CCN2C(=O)CC(*)C2=O)[C@H](O)[C@H](C)O1
# Tests used:
# [1] = system: HeLa cells; assay: Cytotoxicity (resazurin) assay in HeLa cells; settings: 24 h; for EC50: 37 °C, 2.5-70 µM, Dox data not shown
# Procedure: For cell viability assay, cells were (15,000 HeLa, 17,000 MCF-7 and 12,000 HFF-1 cells per well) seeded onto a 96-well plate and grown to 80–90% confluency. Cells were incubated with several peptide concentrations in a serum-free growth medium for 24 h under standard growth conditions. For the positive control, cells were treated with 70% EtOH for 7 min. After washing with DPBS, resazurin solution (10% in serum-free media, v/v) was incubated with the cells for 1 h under standard growth conditions. The cell viability was determined relative to untreated cells by measurement of the resorufin product at 595 nm (λex = 550 nm) on a Tecan infinite M200 plate reader (Tecan Group AG, Männedorf, Switzerland).
# Figure 2 (A,B): Cytotoxicity profiles of the peptides in HeLa and HEK-293 cells. Cells were cultured and incubated at pH 7.4 for 24 h with different concentrations of peptide solutions. Untreated cells served as negative control; cells treated with 70% ethanol as positive control. Values from the positive control were subtracted from all data, and the untreated cells were set to 100%; assays were performed with n = 3 in triplicate. (C): Flow cytometry analysis of HeLa or HEK-293 cells after incubating 1 and 10 µM peptide solutions for 30 min at 37 °C; assays were conducted in triplicate n = 3. (D): Confocal laser scanning microscopy analysis of 10 µM CF-labeled peptides after 30 min of incubation in HeLa cells. Green: CF-labeled peptides; blue: Hoechst 33342 nuclear stain; scale bar is 10 µm.
# Figure 5 (A): Cytotoxicity assay using HFF-1 cells. Different PDC concentrations were incubated with the cells for 24 h at 37 °C and a resazurin assay was conducted. (B): Dose-response curves for peptide drug conjugates were obtained using the resazurin assay. For this, HeLa cells were treated with various conjugate concentrations (2.5–70 µM) for 24 h at 37 °C. (C): Quantification of PDC internalization in HeLa cells; 10 µM PDC solutions were incubated with cells for 30 min at 37 °C and cells were inspected using a flow cytometer; assays were conducted in triplicate n = 3.
# [2] = system: HFF-1 cells; assay: Cytotoxicity (resazurin) assay in HFF-1 cells; type: cell-based, human; settings: 24 h treatment, different concentrations, lowest viability reached
# [3] = system: HeLa cells; assay: Fluorescence microscopy of intracellular distribution in HeLa cells; type: cell-based, human; settings: 30 min; for intracellular distribution of PDC: 5 µM conjugate, 37 °C, fluorescence microscopy; for intracellular accumulation / uptake pattern: 10 µM CF-labeled peptide, confocal fluorescence microscopy
# Procedure: Cells were seeded into 8-well plates (HeLa cells 35,000 and HFF-1 25,000 cells per well, respectively) and grown to 80–90% confluency. Cells were treated with 10 μM CF- or dox-labeled peptides in a serum-free medium for 30 min at 37 °C. Ten minutes prior to the end of the incubation time, nuclei were stained with Hoechst33342. The peptide solution was removed, and cells were washed five times with PBS and covered with fresh medium including FBS. Microscopic analysis was performed using an inverse confocal TCS SP8 microscope (Leica Microsystems, Wetzlar, Germany), equipped with a 63× oil-immersion objective. Images were recorded with LAS X software (LAS_X_Core_3.7.6_25997, Leica Microsystems, Wetzlar, Germany). For the GUV analysis and the uptake of the peptide-drug conjugates the Keyence fluorescence tabletop microscope BZ-X800E (Keyence, Osaka, Japan), with a 60× oil immersion lens was used. Images were recorded with Keyence software (BZ-800X_Analyzer 1.1.1.8, Keyence, Osaka: Japan) and evaluated with Fiji.
# Figure 6 Fluorescence microscope analysis of 5 µM conjugates after 30 min of incubation at 37 °C in HeLa and HFF-1 cells. Red: peptides coupled to red fluorophore Doxorubicin; blue: Hoechst 33342 nuclear stain; BF: brightfield to identify living cells; scale bar is 20 µm.
# [4] = system: HeLa cells; assay: Cellular uptake by flow cytometry in HeLa cells; type: cell-based, human; settings: 30 min; for cellular uptake: 1 and 10 µM CF-labeled peptide, 37 °C, serum-free medium
# Procedure: (§1) Monolayer cellular uptake was quantified using flow cytometry. Cells were seeded onto a 24-well plate (HeLa: 90,000, HEK293: 100,000 and MCF-7 130,000 cells per well) and grown to 80–90% confluency. Then, cells were incubated with the labeled peptides/conjugates in a serum-free medium at 37 °C for various incubation times, and subsequently washed twice with PBS and detached with indicator-free trypsin resuspended in an indicator-free serum-containing medium. The cell suspension was transferred into a 96-well FACS plate and fluorescence was then measured by a Guava easyCyte flow cytometer (Merck, Darmstadt, Germany).The blue laser was used for all measurements, FSC (1137–1538), SSC (3020–4086), Grn-B (647–875) and Red-B (694–939). Cellular autofluorescence of untreated control cells was subtracted.
# [5] = system: MCF-7 cells; assay: Cell viability (resazurin) assay in MCF-7 cells at pH 7.4 or 6.8; type: cell-based, human; settings: MCF-7 cells cultivated at pH 7.4 or 6.8, 24 h, various concentrations, triplicate n = 3
# Procedure: For pH-dependent studies, the cells were cultivated and incubated at pH 6.8 or 7.4, respectively.
# Figure 1 (A,B): Cell-viability assays using MCF-7 cells. Cells were cultivated at pH 7.4 or pH 6.8, respectively, for 24 h using different concentrations of peptide solutions. […] (C): Cellular uptake of histidine peptides in MCF-7 cells.
# [6] = system: HEK293 cells; assay: Cellular uptake by flow cytometry in HEK293 cells; type: cell-based, human; settings: 1 and 10 µM CF-labeled peptide, 30 min, 37 °C, serum-free medium
# Procedure: as §1
# [7] = system: HEK-293 spheroids; assay: Flow cytometry of HEK-293 spheroids; type: cell-based, human; settings: 10 µM CF-labeled peptides, 30 min or 1 h
# Procedure: For the preparation and seeding of spheroids, cells were washed and trypsinized as described above. Cells were transferred into a fresh 15 mL centrifuge tube and centrifuged for 5 min at 300× g and rt. The supernatant was removed carefully and the pellet was resuspended in an appropriate medium supplemented with FBS. Cells were counted and a cell mixture was prepared, which would be sufficient for 100 drops (3 mL). Within this mixture a total amount of 1.5 × 10^6 cells (HEK-293 and HeLa cells) and 20% (v/v) methylcellulose (1.2 mg/mL) were required. The missing volume was filled up with an appropriate medium containing FBS; 30 μL drops were pipetted into the inverted lid of a petri dish (15,000 cells per drop), the bottom was covered with PBS and spheroids were grown in hanging drops for two or three days at 37 °C and 5% CO2, respectively.
# For flow cytometry studies with tumor spheroids, the spheroids were prepared and grown as described above (4.7). […] After the spheroids started to fall apart, 850 μL of medium with FBS (indicator free) was added and the spheroids were resuspended to generate a homogenous cell suspension; 200 μL of each sample were transferred into a fresh round-bottom 96-well plate and analyzed on a Guava® easyCyte flow cytometer (Merck, Darmstadt, Germany). […]
# [8] = triplicate n = 3, listed as sC18^ΔE
molecule,measurement,setting,value
"COc1cccc2c1C(=O)c1c(O)c3c(c(O)c1C2=O)C[C@@](O)(C(=O)CO)C[C@@H]3O[C@H]1C[C@H](N)[C@H](O)[C@H](C)O1.Cl [Dox, doxorubicin hydrochloride, reference compound]",EC50,[1]; resazurin assay,6.78 µM
same,cell viability,[2],72%
CC[C@H](C)[C@H](NC(=O)[C@H](CCCCN)NC(=O)[C@H](CC(N)=O)NC(=O)[C@H](CCCNC(=N)N)NC(=O)[C@H](Cc1ccccc1)NC(=O)[C@H](CCCCN)NC(=O)[C@H](CCCNC(=N)N)NC(=O)[C@H](CC(C)C)NC(=O)[C@H](CCCNC(=N)N)NC(=O)[C@H](CCCCN)NC(=O)[C@H](CCCNC(=N)N)NC(=O)[C@H](CC(C)C)NC(=O)CNC(=O)[C@@H](N)CSC1CC(=O)N(CCC(=O)N[C@H]2C[C@H](O[C@H]3C[C@](O)(C(=O)CO)Cc4c(O)c5c(c(O)c43)C(=O)c3c(OC)cccc3C5=O)O[C@@H](C)[C@H]2O)C1=O)C(=O)N[C@@H](CCCCN)C(=O)N[C@@H](CCC(=O)O)C(=O)N[C@@H](CCCCN)C(N)=O (stereo partly drawn) [PDC-1] (H-C(X1)GLRKRLRKFRNKIKEK-NH2),EC50,[1]; resazurin assay,15.3 µM
same,intracellular distribution of PDC,[3],more fluorescence was also measured within the nuclei
CC[C@H](C)[C@H](NC(=O)[C@H](CCCCN)NC(=O)[C@H](CC(N)=O)NC(=O)[C@H](CCCNC(=N)N)NC(=O)[C@H](Cc1ccccc1)NC(=O)[C@H](CCCCN)NC(=O)[C@H](CCCNC(=N)N)NC(=O)[C@H](CC(C)C)NC(=O)[C@H](CCCNC(=N)N)NC(=O)[C@H](CCCCN)NC(=O)[C@H](CCCNC(=N)N)NC(=O)[C@H](CC(C)C)NC(=O)CNC(=O)[C@@H](N)CSC1CC(=O)N(CCC(=O)N[C@H]2C[C@H](O[C@H]3C[C@](O)(C(=O)CO)Cc4c(O)c5c(c(O)c43)C(=O)c3c(OC)cccc3C5=O)O[C@@H](C)[C@H]2O)C1=O)C(=O)N[C@@H](CCCCN)C(=O)N[C@@H](CCCCN)C(N)=O (stereo partly drawn) [PDC-2] (H-C(X1)GLRKRLRKFRNKIKK-NH2),EC50,[1]; resazurin assay,14.5 µM
same,PDC internalization,"[4]; 5 µM PDC (text; legend of Figure 5C: 10 µM), doxorubicin red fluorescence",enhanced compared to the other two
same,intracellular distribution of PDC,[3],clustering inside the cytosol
COc1cccc2c1C(=O)c1c(O)c3c(c(O)c1C2=O)C[C@@](O)(C(=O)CO)C[C@@H]3O[C@H]1C[C@H](NC(=O)CCN2C(=O)CC(SC[C@H](N)C(=O)NCC(=O)N[C@@H](CC(C)C)C(=O)N[C@@H](CCCNC(=N)N)C(=O)N[C@@H](CCCCN)C(=O)N[C@@H](CCCNC(=N)N)C(=O)N[C@@H](CC(C)C)C(=O)N[C@@H](CCCNC(=N)N)C(=O)N[C@@H](CCCCN)C(=O)N[C@@H](Cc3ccccc3)C(=O)N[C@@H](CCCNC(=N)N)C(=O)N[C@@H](CC(N)=O)C(=O)N[C@@H](CCCCN)C(N)=O)C2=O)[C@H](O)[C@H](C)O1 (stereo partly drawn) [PDC-3] (H-C(X1)GLRKRLRKFRNK-NH2),EC50,[1]; resazurin assay,27 µM
GLRKRLRKFRNKIKEK-NH2 [sC18],cytotoxicity,[5],slightly more toxic at higher concentrations
same,cell viability at 100 µM,"[1]; concentration increased up to 100 µM, resazurin assay",≥ 75%
same,concentration up to which no toxic effect was observed,"[1]; pH 7.4, resazurin assay, n = 3 in triplicate",50 µM
same,cellular uptake,[4]; triplicate n = 3,to a little extent
same,cellular uptake,[4]; [8],highly significant and enhanced internalization
same,cellular uptake,[6]; triplicate n = 3,to a little extent
same,cellular uptake,[6]; [8],highly significant and enhanced internalization
same,intracellular accumulation / uptake pattern,[3],far lower compared to the other two novel peptides
same,intracellular accumulation / uptake pattern,[3]; listed as sC18^ΔE,accumulated in a dot-like manner within the cell interior and did not reach the nuclei
same,accumulation in spheroids,[7],most efficient variants
